Patent US20240279207A1, “SUBSTITUTED ACYL SULFONAMIDES FOR TREATING CANCER” (The Broad Institute, Inc., priority 2020, published 2024)
Read-outs that look alike come from different tables or passages of the source.

Tests used:
[1] = test system: ESR1 transcription in MVLN cells; test: MVLN reporter assay: repression of ESR1 transcription (luciferase signal); format: cell-based; conditions: Homo sapiens, luciferase signal after 24 h, read-out: MVLN reporter assay, IC50 [M] (arithmetic mean)
Text: KAT6A controls transcription of the ESR1 gene in breast cancer cells. Compound treatment that interferes with this mechanism was quantified using MVLN cells. These cells constitutively express the ER and are stably transfected with the luciferase (LUC) reporter gene and the corresponding hormone responsive element derived from the 5′-flanking region of the Xenopus Vitellogenin A2 gene (Pons et al., 1990, Demirpense et al., 1993, Joyeux et al., 1993). The repressive effect on ERα transcription activity of a test chemical is directly related to the luciferase measured in the lysate of treated MVLN cells. […] Each sample was prepared as duplicate and rim wells were excluded. For luciferase signal determination 100 μl of a 1:1 mixture of Steadylite plus (Perkin Elmer; 6016759) and assay medium was added after 24 h for 15 minutes and measured in Victor X3 (Perkin Elmer). To exclude any effects caused by cell loss during the treatment, cell density was determined using Alamar Blue (Invitrogen; DAL1100). Prior to the luciferase measurement 10 μl Alamar Blue were added to each well and the plates were incubated for 2 h in the incubator. Then fluorescence was measured with Victor X3 (Perkin Elmer) at 530 nm/590 nm.

[2] = biological target: T1, Recombinant human His-tagged Kat6a protein (amino acids 194-810) (Homo sapiens, UniProt Q92794); test: Kat6a activity assay (TR-FRET, acetylation of Histone-H4-derived peptide); format: biochemical; conditions: 60 mins at 22° C., 220 nM H4 peptide, 600 nM Acetyl Coenzyme A, read-out: KAT6A - DPF/HAT domain IC50 [mol/l] (arithmetic mean)
T1 construct: Kat6a protein (amino acids 194-810); His
T1 sequence (Q92794 194-810): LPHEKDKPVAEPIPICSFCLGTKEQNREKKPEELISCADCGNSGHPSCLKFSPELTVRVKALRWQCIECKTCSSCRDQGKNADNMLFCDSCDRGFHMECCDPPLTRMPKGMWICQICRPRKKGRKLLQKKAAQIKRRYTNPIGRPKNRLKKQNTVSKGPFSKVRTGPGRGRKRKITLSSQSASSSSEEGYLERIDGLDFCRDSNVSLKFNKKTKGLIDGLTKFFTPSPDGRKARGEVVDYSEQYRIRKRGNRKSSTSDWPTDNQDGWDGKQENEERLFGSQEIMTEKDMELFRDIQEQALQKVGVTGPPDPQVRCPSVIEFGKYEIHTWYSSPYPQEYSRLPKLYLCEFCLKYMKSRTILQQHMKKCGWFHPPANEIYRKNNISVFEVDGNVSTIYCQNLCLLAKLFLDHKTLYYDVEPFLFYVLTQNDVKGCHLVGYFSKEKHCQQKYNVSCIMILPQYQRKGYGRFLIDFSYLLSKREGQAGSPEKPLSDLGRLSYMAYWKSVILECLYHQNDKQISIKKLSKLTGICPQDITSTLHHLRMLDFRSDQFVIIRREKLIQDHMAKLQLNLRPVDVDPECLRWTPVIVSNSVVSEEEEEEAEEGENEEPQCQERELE
Procedure: Kat6a inhibitory activities of the compounds described in the present invention were quantified using a Fluorescence Resonance Energy Transfer (TR-FRET) assay which measures acetylation of a synthetic, biotinylated Histone-H4-derived peptide by the enzyme.
In this case 50 nl DMSO were used instead of compounds. […] IC50 values were determined by regression analysis based on a 4 parameter equation (minimum, maximum, ICM, Hill; Y=Max+(Min−Max)/(1+(X/ICso) Hill) using the Screener Software (Genedata).

N#CCCc1ccc(S(=O)(=O)NC(=O)c2cc3c(F)cc(N4CCC4)cc3o2)cc1 [Example 68, 6-(Azetidin-1-yl)-N-[4-(2-cyanoethyl)benzene-1-sulfonyl]-4-fluoro-1-benzofuran-2-carboxamide]
IC50 ([1]; MVLN, 24 h): 1.26e-05 M | IC50 [2]: 652 nM

O=C(NS(=O)(=O)c1ncccc1Br)c1cc2c(F)cc(N3CCC3)cc2o1 [Example 69, 6-(Azetidin-1-yl)-N-(3-bromopyridine-2-sulfonyl)-4-fluoro-1-benzofuran-2-carboxamide]
IC50 ([1]; MVLN, 24 h): 1.56e-05 M | IC50 [2]: 325 nM

Cc1cc(Nc2ccccc2S(=O)(=O)NC(=O)c2cc3c(F)cc(N4CCC4)cc3o2)n(-c2ccccc2)n1 [Example 70, 6-(Azetidin-1-yl)-4-fluoro-N-{2-[(3-methyl-1-phenyl-1H-pyrazol-5-yl)amino]benzene-1-sulfonyl}-1-benzofuran-2-carboxamide]
IC50 ([1]; MVLN, 24 h): 1.58e-05 M | IC50 [2]: 494 nM

O=C(NS(=O)(=O)c1cc(O)cc2ccccc12)c1cc2c(F)cc(N3CCC3)cc2o1 [Example 71, 6-(Azetidin-1-yl)-4-fluoro-N-(3-hydroxynaphthalene-1-sulfonyl)-1-benzofuran-2-carboxamide]
IC50 ([1]; MVLN, 24 h): 1.72e-05 M | IC50 [2]: 84.3 nM

CN(C)S(=O)(=O)c1ccc(Cl)c(S(=O)(=O)NC(=O)c2cc3c(F)cc(N4CCC4)cc3o2)c1 [Example 72, 6-(Azetidin-1-yl)-N-[2-chloro-5-(dimethylsulfamoyl)benzene-1-sulfonyl]-4-fluoro-1-benzofuran-2-carboxamide]
IC50 ([1]; MVLN, 24 h): 1.89e-05 M | IC50 [2]: 159 nM

O=C(NS(=O)(=O)c1ccccc1C(=O)N1CCOCC1)c1cc2c(F)cc(N3CCC3)cc2o1 [Example 73, 6-(Azetidin-1-yl)-4-fluoro-N-[2-(morpholine-4-carbonyl)benzene-1-sulfonyl]-1-benzofuran-2-carboxamide]
IC50 ([1]; MVLN, 24 h): 2.56e-06 M | IC50 [2]: 105 nM

COC(=O)/C=C/c1ccccc1S(=O)(=O)NC(=O)c1cc2c(F)cc(N3CCC3)cc2o1 [Example 74, Methyl (2E)-3-(2-{[6-(azetidin-1-yl)-4-fluoro-1-benzofuran-2-carbonyl]sulfamoyl}phenyl)prop-2-enoate]
IC50 ([1]; MVLN, 24 h): 2.56e-06 M | IC50 [2]: 89.8 nM

CCOc1cccc(S(=O)(=O)NC(=O)c2cc3c(F)cc(N4CCC4)cc3o2)c1 [Example 75, 6-(Azetidin-1-yl)-N-(3-ethoxybenzene-1-sulfonyl)-4-fluoro-1-benzofuran-2-carboxamide]
IC50 ([1]; MVLN, 24 h): 2.76e-06 M | IC50 [2]: 337 nM

CCN(CC)C(=O)Oc1ccccc1S(=O)(=O)NC(=O)c1cc2c(F)cc(N3CCC3)cc2o1 [Example 76, 2-{[6-(Azetidin-1-yl)-4-fluoro-1-benzofuran-2-carbonyl]sulfamoyl}phenyl diethylcarbamate]
IC50 [1]: 2.82e-06 M | IC50 [2]: 111 nM

CCS(=O)(=O)c1ccccc1S(=O)(=O)NC(=O)c1cc2c(F)cc(N3CCC3)cc2o1 [Example 77, 6-(Azetidin-1-yl)-N-[2-(ethanesulfonyl)benzene-1-sulfonyl]-4-fluoro-1-benzofuran-2-carboxamide]
IC50 ([1]; MVLN, 24 h): 3.45e-06 M | IC50 [2]: 207 nM

CCOc1cccc(OCC(F)F)c1S(=O)(=O)NC(=O)c1cc2c(F)cc(N3CCC3)cc2o1 [Example 81, 6-(Azetidin-1-yl)-N-[2-(2,2-difluoroethoxy)-6-ethoxybenzene-1-sulfonyl]-4-fluoro-1-benzofuran-2-carboxamide]
IC50 ([1]; MVLN, 24 h): 1.57e-07 M | IC50 [2]: 18 nM

O=C(NS(=O)(=O)c1cc(Br)ccc1OC(F)(F)F)c1cc2c(F)cc(N3CCC3)cc2o1 [Example 82, 6-(Azetidin-1-yl)-N-[5-bromo-2-(trifluoromethoxy)benzene-1-sulfonyl]-4-fluoro-1-benzofuran-2-carboxamide]
IC50 ([1]; MVLN, 24 h): 3.66e-07 M | IC50 [2]: 19.3 nM

CCCOc1cccc(OC(C)(C)C)c1S(=O)(=O)NC(=O)c1cc2c(F)cc(N3CCC3)cc2o1 [Example 83, 6-(Azetidin-1-yl)-N-(2-tert-butoxy-6-propoxybenzene-1-sulfonyl)-4-fluoro-1-benzofuran-2-carboxamide]
IC50 ([1]; MVLN, 24 h): 2.85e-07 M | IC50 [2]: 26.7 nM

CCc1cccc(OC(C)C)c1S(=O)(=O)NC(=O)c1cc2c(F)cc(N3CCC3)cc2o1 [Example 84, 6-(Azetidin-1-yl)-N-{2-ethyl-6-[(propan-2-yl)oxy]benzene-1-sulfonyl}-4-fluoro-1-benzofuran-2-carboxamide]
IC50 ([1]; MVLN, 24 h): 5.73e-07 M | IC50 [2]: 42.7 nM

CCc1cccc(OCc2ccccc2)c1S(=O)(=O)NC(=O)c1cc2c(F)cc(N3CCC3)cc2o1 [Example 85, 6-(Azetidin-1-yl)-N-[2-(benzyloxy)-6-ethylbenzene-1-sulfonyl]-4-fluoro-1-benzofuran-2-carboxamide]
IC50 ([1]; MVLN, 24 h): 3.1e-07 M | IC50 [2]: 45.7 nM

Cc1cccc(OC(C)C)c1S(=O)(=O)NC(=O)c1cc2c(F)cc(N3CCC3)cc2o1 [Example 86, 6-(Azetidin-1-yl)-4-fluoro-N-{2-methyl-6-[(propan-2-yl)oxy]benzene-1-sulfonyl}-1-benzofuran-2-carboxamide]
IC50 ([1]; MVLN, 24 h): 3.33e-07 M | IC50 [2]: 54.8 nM

Cc1ccc(S(=O)(=O)NC(=O)c2cc3c(F)cc(N4CCC4)cc3o2)c2ccccc12 [Example 87, 6-(azetidin-1-yl)-4-fluoro-N-(4-methylnaphthalene-1-sulfonyl)-1-benzofuran-2-carboxamide]
IC50 ([1]; MVLN, 24 h): 1.2e-06 M | IC50 [2]: 64.5 nM

Cc1ccc(F)c(S(=O)(=O)NC(=O)c2cc3c(F)cc(N4CCC4)cc3o2)c1F [Example 88, 6-(Azetidin-1-yl)-N-(2,6-difluoro-3-methylbenzene-1-sulfonyl)-4-fluoro-1-benzofuran-2-carboxamide]
IC50 ([1]; MVLN, 24 h): 4.45e-07 M | IC50 [2]: 127 nM

CCC(=O)Nc1cccc2c(S(=O)(=O)NC(=O)c3cc4c(F)cc(N5CCC5)cc4o3)cccc12 [Example 89, 6-(Azetidin-1-yl)-4-fluoro-N-(5-propanamidonaphthalene-1-sulfonyl)-1-benzofuran-2-carboxamide]
IC50 ([1]; MVLN, 24 h): > 2e-05 M | IC50 [2]: 269 nM

CCOC(=O)c1cn2cccc(S(=O)(=O)NC(=O)c3cc4c(F)cc(N5CCC5)cc4o3)c2n1 [Example 90, Ethyl 8-{[6-(azetidin-1-yl)-4-fluoro-1-benzofuran-2-carbonyl]sulfamoyl}imidazo[1,2-a]pyridine-2-carboxylate]
IC50 ([1]; MVLN, 24 h): > 2e-05 M | IC50 [2]: 300 nM

Cc1nn(C(C)C)cc1S(=O)(=O)NC(=O)c1cc2c(F)cc(N3CCC3)cc2o1 [Example 91, 6-(Azetidin-1-yl)-4-fluoro-N-[3-methyl-1-(propan-2-yl)-1H-pyrazole-4-sulfonyl]-1-benzofuran-2-carboxamide]
IC50 ([1]; MVLN, 24 h): 3.08e-07 M | IC50 [2]: 379 nM

O=C(NS(=O)(=O)c1cc(C(F)(F)F)ccc1NCC(F)F)c1cc2c(F)cc(N3CCC3)cc2o1 [Example 92, 6-(Azetidin-1-yl)-N-{2-[(2,2-difluoroethyl)amino]-5-(trifluoromethyl)benzene-1-sulfonyl}-4-fluoro-1-benzofuran-2-carboxamide]
IC50 ([1]; MVLN, 24 h): > 2e-05 M | IC50 [2]: 464 nM

NS(=O)(=O)c1cc(COC(=O)c2cc3c(F)cc(N4CCC4)cc3o2)ccc1OC(F)(F)F [Example 93, [3-sulfamoyl-4-(trifluoromethoxy)phenyl]methyl 6-(azetidin-1-yl)-4-fluoro-1-benzofuran-2-carboxylate]
IC50 ([1]; MVLN, 24 h): > 2e-05 M | IC50 [2]: 1160 nM

Cc1ncccc1S(=O)(=O)NC(=O)c1cc2c(F)cc(N3CCC3)cc2o1 [Example 94, 6-(Azetidin-1-yl)-4-fluoro-N-(2-methylpyridine-3-sulfonyl)-1-benzofuran-2-carboxamide]
IC50 ([1]; MVLN, 24 h): > 2e-05 M | IC50 [2]: 1510 nM

CN(C)C(=O)c1cccnc1S(=O)(=O)NC(=O)c1cc2c(F)cc(N3CCC3)cc2o1 [Example 95, 2-{[6-(Azetidin-1-yl)-4-fluoro-1-benzofuran-2-carbonyl]sulfamoyl}-N,N-dimethylpyridine-3-carboxamide]
IC50 ([1]; MVLN, 24 h): > 2e-05 M | IC50 [2]: 1520 nM

O=C(NS(=O)(=O)c1ccccc1C1=NOCCO1)c1cc2c(F)cc(N3CCC3)cc2o1 [Example 96, 6-(Azetidin-1-yl)-N-[2-(5,6-dihydro-1,4,2-dioxazin-3-yl)benzene-1-sulfonyl]-4-fluoro-1-benzofuran-2-carboxamide]
IC50 ([1]; MVLN, 24 h): > 2e-05 M | IC50 [2]: 6250 nM

CN(C)c1ccc(Cl)c(S(=O)(=O)NC(=O)c2cc3c(F)cc(N4CCC4)cc3o2)c1 [Example 97, 6-(Azetidin-1-yl)-N-[2-chloro-5-(dimethylamino)benzene-1-sulfonyl]-4-fluoro-1-benzofuran-2-carboxamide]
IC50 ([1]; MVLN, 24 h): > 2e-05 M | IC50 [2]: 14000 nM

NS(=O)(=O)c1cc(OC(=O)c2cc3c(F)cc(N4CCC4)cc3o2)cc2ccccc12 [Example 98, 4-Sulfamoylnaphthalen-2-yl 6-(azetidin-1-yl)-4-fluoro-1-benzofuran-2-carboxylate]
IC50 ([1]; MVLN, 24 h): > 2e-05 M | IC50 [2]: > 20000 nM
